Assay results from patent publication US9943528B2 (MAPREG, priority 2016, dated 2018).
Where two headings read alike, the source gives them in different places.

Legend:
[1] = system: adult male Sprague Dawley rats; details: cited from earlier work
Wistar Kyoto (WKY) rats [2] = assay: Neurogenesis in dentate gyrus of hippocampus (BrdU/NeuN) in WKY rats; format: in vivo, rat; details: chronic MAP4343 15 mg/kg, s.c., 24 days, FIG. 9C
Experimental: Wistar Kyoto (WKY) rats are considered as a model of treatment-resistant depression, while Wistar (WI) rats are used as control strain of WKY rats. During this experiment both WI and WKY rats were administered with MAP4343 (15 mg/Kg), subcutaneously (s.c.) for 24 days. Behavioral tests were performed at during the last week of treatment, and rats were finally sacrificed for addressing neurogenesis in Gyrus dentate of hippocampus using histological experiments. Organization of this protocol is depicted in FIG. 7.
MAP4343 was diluted in sesame oil, and then administered subcutaneously (s.c.) at the dose of 15 mg/kg during 24 days. The vehicle group received only the sesame oil (1 ml/kg) in the similar conditions.
Injections of BrdU were performed twice at D0, 24 and 22 hours before the beginning of treatment. All animals were equally given two injections of BrdU (75 mg/kg, dissolved in saline solution intraperitoneally), at two hours pulse-chase interval. […]
Neurogenesis in each dentate gyrus was manually measured by quantification of positive cells co-labelled with BrdU/NeuN, using a microscope equipped with epifluorescence (Zeiss Axiovert 200, objective 40×). Total number of new neurons in the entire dentate gyrus was estimated by multiplying the measured number by 8 (that corresponds to the number of unused sections separating each coronal sections used to count the newly-formed neurons). […]

NMDA PCP site = assay: CNS receptor binding assay, NMDA PCP site; details: MAP4343 10 μM; [3H] TCP; rat cerebral cortex
Source text: (§1) MAP4343 has been screened for in vitro affinity to 80 different CNS neurotransmitters receptors using various validated binding assays.

Noradrenergic α1 = assay: CNS receptor binding assay, α1; details: MAP4343 10 μM; [3H] prazosin; rat cerebral cortex
Source text: as §1

[3] = system: purified tubulin and MAP2; assay: Activity: increase in optical density at 345 nm of purified tubulin and MAP2 with GTP; format: biochemical; details: 37° C.
Experimental: Activity is measured by the increase in optical density at 345 nm of a mixture of purified tubulin and MAP2, incubated at 37° C. in the presence of GTP.

GABA (non-selective) = assay: CNS receptor binding assay, GABA; details: MAP4343 10 μM; [3H] GABA; rat cerebral cortex
Source text: as §1

[4] = system: social-isolated adult male Sprague Dawley rats; details: cited from earlier work
Wistar Kyoto (WKY) rats [5] = assay: Forced swimming test (FST) in WKY rats; format: in vivo, rat; details: FIG. 6B
Experimental: After a 6-day period of acclimatization, all experimental groups received daily successive subcutaneous (250 μl per rat) and intraperitoneal (1 ml/kg) injections. WI rats received injection of vehicle (sesame oil+saline) while WKY rats were randomly assigned to three experimental groups, as follow: KWY rats receiving only vehicle ([…]; rats received in parallel i.p. injections of saline), fluoxetine (10 mg/kg i.p., rats received in parallel s.c. injections of sesame oil) or ketamine (30 mg/kg, i.p.; rats received in parallel s.c. injections of sesame oil) (see FIG. 3).
After, a 6-day period of acclimatization, the acute phase of treatment started for 4 days during behavioral tests were performed (FIG. 3). All animals were injected 1 h 30 before the starting of behavioral test.
Rats were submitted to the forced swimming test (FST), according the procedure initially described by (Detke et al., 1995) and slightly modified by (Bianchi et al., 2002). Briefly, rats were individually placed into a Plexiglas cylinder (40 cm height, 20 cm diameter) containing 25 cm of water at 25±1° C., under 50 lux illumination. […] The pre-test and test sessions were recorded using a video camera placed above the cylinder for subsequent behavioral analysis. The immobility time (in sec) was blindly measured by two independent experimenters from recorded videos. […]

## CO[C@H]1CC[C@@]2(C)C(=CC[C@H]3[C@@H]4CC[C@H](C(C)=O)[C@@]4(C)CC[C@@H]32)C1 [MAP4343, 3β-methoxy-pregna-5-ene-20-one]
[1]; naïve adult male Sprague Dawley rats, U.S. Pat. No. 8,334,278
  immobility in the forced swimming test: decreases immobility
[1]; social-isolated adult male Sprague Dawley rats, Bianchi and Baulieu, 2012
  immobility in the forced swimming test: decreased immobility
Wistar Kyoto (WKY) rats [2]
  number of newly-formed neurons (BrdU and Neu-N) in dentate gyrus, change vs WKY receiving only vehicle: +71%
NMDA PCP site
  % Inhibition of control specific binding: −10%
Noradrenergic α1
  % Inhibition of control specific binding: 4%
[3]
  Activity: 100% of PREG
GABA (non-selective)
  % Inhibition of control specific binding: 2%
[4]; acute phase (2 days of daily injections)
  anxiety in the EPM test: not in the acute phase
[4]; subchronic phase (8 days of daily injections)
  anxiety in the EPM test: recovered increased anxiety
Wistar Kyoto (WKY) rats [5]; MAP4343 1, 5, 10 and 15 mg/kg
  immobility time in FST, dose-ranging effect: dose-dependent decrease of immobility time
Wistar Kyoto (WKY) rats [5]; dose-ranging, MAP4343 15 mg/kg
  immobility time in FST, change vs WKY receiving vehicle alone: −25%
